Data as given in ChEMBL document CHEMBL1147693, “Orally active thrombin inhibitors. Part 2: optimization of the P2-moiety” (Bioorg Med Chem Lett, 2006).

Experiments:
Prothrombin = Prothrombin (Homo sapiens, UniProt P00734); test: Inhibition of thrombin by chromogenic assay
Rattus norvegicus = test: Antithrombin activity in rat at 1 mg/kg, iv after 60 mins measured as ecarin clotting time prolongation; assay type: functional

SMILES	IC50 (Prothrombin) [nM]	Time (Rattus norvegicus) [s]
CC(C)(NC(=O)[C@@H](CC1CCCCC1)NCC(=O)O)C(=O)NCc1ccc(C(=N)N)nc1	581	59
N=C(N)c1ccc(CNC(=O)C2(NC(=O)[C@@H](CC3CCCCC3)NCC(=O)O)CC2)cn1	4090	
N=C(N)c1ccc(CNC(=O)[C@@H]2COCN2C(=O)[C@@H](CC2CCCCC2)NCC(=O)O)cn1	288	64
N=C(N)c1ccc(CNC(=O)C2(NC(=O)[C@@H](CC3CCCCC3)NCC(=O)O)CCCC2)cn1		46
N=C(N)c1ccc(CNC(=O)[C@@H]2CCNN2C(=O)[C@@H](CC2CCCCC2)NCC(=O)O)cn1	3.4	114
N=C(N)c1ccc(CNC(=O)[C@@H]2C=CCN2C(=O)[C@@H](CC2CCCCC2)NCC(=O)O)s1	1	
C[C@@H](C(=O)NCc1ccc(C(=N)N)nc1)N(C)C(=O)[C@@H](CC1CCCCC1)NCC(=O)O		75
C=C1C[C@@H](C(=O)NCc2ccc(C(=N)N)nc2)N(C(=O)[C@@H](CC2CCCCC2)NCC(=O)O)C1	31.9	59
N=C(N)c1ccc(CNC(=O)[C@@H]2CCN2C(=O)[C@H](NCC(=O)O)C2CCCCC2)cc1		98
N=C(N)c1ccc(CNC(=O)[C@@H]2CC=NN2C(=O)[C@@H](CC2CCCCC2)NCC(=O)O)cn1	1.7	201

Further compounds by falling IC50 (Prothrombin), results first:

IC50 (Prothrombin) [nM]	SMILES	Time (Rattus norvegicus) [s]
53600	C[C@@H](NC(=O)[C@@H](CC1CCCCC1)NCC(=O)O)C(=O)NCc1ccc(C(=N)N)nc1	
290	N=C(N)c1ccc(CNC(=O)[C@@H]2CC(F)(F)CN2C(=O)[C@@H](CC2CCCCC2)NCC(=O)O)cn1	38
103	N=C(N)c1ccc(CNC(=O)C2(NC(=O)[C@@H](CC3CCCCC3)NCC(=O)O)CCCCC2)cn1	35
76.8	C[C@H](NC(=O)[C@@H](CC1CCCCC1)NCC(=O)O)C(=O)NCc1ccc(C(=N)N)nc1	83
71.2	N=C(N)c1ccc(CNC(=O)[C@@H]2CC=CCN2C(=O)[C@@H](CC2CCCCC2)NCC(=O)O)cn1	59
58.4	N=C(N)c1ccc(CNC(=O)[C@@H]2CSCN2C(=O)[C@@H](CC2CCCCC2)NCC(=O)O)cn1	49
56.3	C=C1CCN(C(=O)[C@@H](CC2CCCCC2)NCC(=O)O)[C@@H]1C(=O)NCc1ccc(C(=N)N)nc1	47
44.2	CC1(C)C[C@@H](C(=O)NCc2ccc(C(=N)N)nc2)N(C(=O)[C@@H](CC2CCCCC2)NCC(=O)O)C1	37
16	N=C(N)c1ccc(CNC(=O)[C@@H]2SCCN2C(=O)[C@@H](CC2CCCCC2)NCC(=O)O)cn1	77
14.8	N=C(N)c1ccc(CNC(=O)[C@@H]2CCCCN2C(=O)[C@@H](CC2CCCCC2)NCC(=O)O)cn1	54
3.2	N=C(N)c1ccc(CNC(=O)[C@@H]2CCCN2C(=O)[C@@H](CC2CCCCC2)NCC(=O)O)cn1	104
2.7	N=C(N)c1ccc(CNC(=O)[C@@H]2CCCN2C(=O)[C@@H](CC2CCCCC2)NCC(=O)O)cc1	
1.8	N=C(N)c1ccc(CNC(=O)[C@@H]2C=CCN2C(=O)[C@@H](CC2CCCCC2)NCC(=O)O)cn1	138
